pKd: −log10 of the molar value. Read-outs that look alike come from different tables or passages of the source. *1 amine or outer side, *2 acyl side, *3 side chain or, on linkers, in order; H or OH if unused. Where a SMILES comes first, the peptide text is derived from it. Bridges are numbered along the chain shown (N, C = ends). TATA = O=C(CC[*:1])N1CN(C(=O)CC[*:2])CN(C(=O)CC[*:3])C1
Tests used:
[1] = biological target: T1, TSLP (Homo sapiens, UniProt Q969D9); test: Human peripheral blood mononuclear cell assay (TSLP-induced CCL17/TARC); type: cell-based; parameters: host or cells: added to human PBMCs from healthy donors; conditions: read-out: CCL17 % Inhibition @ 10 μM, […] TSLP
Procedure: Human peripheral blood mononuclear cells (PMBCs) were obtained from heparinized whole blood (healthy donors) by density gradient centrifugation using Lymphoprep (StemCell Technologies, Vancouver, BC) according to the manufacturers instructions. The PBMCs were washed twice with PBS containing 2 mM EDTA and 2% fetal calf serum (FCS) and reconstituted in RPMI containing 10% FCS and 2% PenStrep at a final concentration of 3 million cells/mL. This cell suspension (100 μL) was aliquoted into the wells of a 96-well flat bottom tissue culture plate. 5 μL of bicycle peptide or vehicle (0.1% DMSO in complete medium) was then added and mixed with 5 μL of TSLPvehicle (complete medium). […] The plate was incubated for 30 minutes are rt. 10 μL of this mixture was added to cells and the plate was incubated for 24 hours in a 10% CO2, humidified incubator at 37° C. The plate was centrifuged at 300×g for 5 min and the collected supernatants frozen at −20° C. for subsequent CCL17/TARC analysis.
CCL17/TARC was determined by MSD (MesoScale Discovery, Maryland, USA) according to the manufacturer's instructions.

[2] = biological target: T1, TSLP; test: Human TSLP Surface Plasmon Resonance (SPR) binding assay; parameters: The resulting construct spCD33-6×HN-TEV-hTSLP(29-159)-Avi; 6xHN tag with TEV site (N, cleaved yes); made in house; host or cells: Expi293F cells; conditions: biotinylated human TSLP immobilized on streptavidin chip; 20° C.; steady-state or kinetic 1:1 fit; read-out: hTSLP SPR Kd
[3] = the molecule shown is the open-chain precursor
[4] = crosslinker bond, 29-membered ring, TATA/NH4HCO3, MeCN/H2O

T1 sequence (Q969D9 29-159): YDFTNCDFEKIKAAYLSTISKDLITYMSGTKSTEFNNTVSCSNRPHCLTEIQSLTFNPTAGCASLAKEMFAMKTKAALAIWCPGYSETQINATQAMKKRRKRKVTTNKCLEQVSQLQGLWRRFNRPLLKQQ

| Molecule | inhibition at 10 µM [1] [%] | pKd [2] | ring closure, yield after HPLC [3, 4] [%] | also measured |
| --- | --- | --- | --- | --- |
| CC(C)C[C@@H]1NC(=O)[C@H](Cc2c[nH]c3ccccc23)NC(=O)[C@H](Cc2c[nH]c3ccccc23)NC(=O)[C@H](CO)NC(=O)[C@H](CC(=O)O)NC(=O)[C@@H]2CSCCC(=O)N3CN(CN(C3)C(=O)CCSC[C@H](NC(=O)[C@@H](NC(=O)[C@H](Cc3c[nH]cn3)NC(=O)[C@@H](N)CO)C(C)C)C(=O)N[C@@H](CCCNC(=N)N)C(=O)N[C@@H](CC(=O)O)C(=O)N[C@@H](CC(C)C)C(=O)N[C@@H](CC(=O)O)C(=O)N3CCC[C@H]3C(=O)N[C@@H](Cc3c[nH]c4ccccc34)C(=O)N[C@@H]([C@@H](C)O)C(=O)N2)C(=O)CCSC[C@@H](C(=O)N[C@@H](C)C(N)=O)NC1=O [Example 188, SHV-(SEQ ID NO: 137)-A] (H-SHVCRDLDPWTCDSWWLCA-NH2; linker 4-12-18 via TATA; N-terminus and C-terminus assumed) | -4 | 7.14 |  |  |
| CC(C)C[C@H](NC(=O)CNC(=O)[C@H](CC(=O)O)NC(=O)[C@H](C)NC(=O)[C@@H]1CSCCC(=O)N2CN3CN(C2)C(=O)CCSC[C@H](NC(=O)[C@H]([C@@H](C)O)NC(=O)[C@H](Cc2c[nH]c4ccccc24)NC(=O)[C@@H]2CCCN2C(=O)[C@H](CC(=O)O)NC(=O)[C@H](CC(C)C)NC(=O)[C@H](CC(=O)O)NC(=O)[C@H](CCCNC(=N)N)NC(=O)[C@@H](NC(=O)[C@H](C)N)CSCCC3=O)C(=O)N[C@@H](CO)C(=O)N[C@@H](CO)C(=O)N[C@@H](Cc2c[nH]c3ccccc23)C(=O)N[C@@H](Cc2c[nH]c3ccccc23)C(=O)N[C@@H](CC(C)C)C(=O)N1)C(=O)N[C@@H](Cc1ccc(O)cc1)C(=O)N[C@@H](CC(=O)O)C(=O)N[C@@H](C)C(N)=O [Example 193, A-(SEQ ID NO: 122)-ADGLYDA] | 47 | 7.30 |  |  |
| CC(C)C[C@@H]1NC(=O)[C@H](Cc2c[nH]c3ccccc23)NC(=O)[C@@H]2CSCCC(=O)N3CN(CN(C3)C(=O)CCSC[C@@H](C(=O)N[C@@H](C)C(N)=O)NC(=O)[C@H](CO)NC1=O)C(=O)CCSC[C@H](NC(=O)[C@H](C)N)C(=O)N[C@@H](CC(=O)O)C(=O)N[C@@H](Cc1c[nH]c3ccccc13)C(=O)N[C@@H](Cc1c[nH]cn1)C(=O)N[C@@H](Cc1c[nH]c3ccccc13)C(=O)N[C@@H](CCC(=O)O)C(=O)N[C@@H](Cc1ccc(O)cc1)C(=O)N[C@@H](CC(=O)O)C(=O)N2 [Example 199, A-(SEQ ID NO: 144)-A] | -3 | 7.09 |  |  |
| CC(C)C[C@@H]1NC(=O)[C@H](Cc2c[nH]c3ccccc23)NC(=O)[C@@H]2CSCCC(=O)N3CN(CN(C3)C(=O)CCSC[C@H](NC(=O)[C@H](CC(=O)O)NC(=O)[C@H](Cc3c[nH]cn3)NC(=O)[C@@H](N)CC(=O)O)C(=O)N[C@@H]([C@@H](C)O)C(=O)N[C@@H](Cc3c[nH]c4ccccc34)C(=O)N[C@@H](CC(N)=O)C(=O)N[C@@H](Cc3c[nH]c4ccccc34)C(=O)N[C@@H](CCC(=O)O)C(=O)N[C@@H](Cc3ccc(O)cc3)C(=O)N[C@@H](CC(=O)O)C(=O)N2)C(=O)CCSC[C@@H](C(=O)N[C@@H](C)C(N)=O)NC(=O)[C@H](CC(=O)O)NC1=O [Example 200, DHD-(SEQ ID NO: 145)-A] (H-DHDCTWNWEYDCWLDCA-NH2; linker 4-12-16 via TATA; N-terminus and C-terminus assumed) | -42 | 7.17 |  |  |
| Ac-Cys-Gln-X2-Leu-Glu-Asp-Cys-Trp-X1-Gly-Phe(4-F)-Cys-NH2 (X1=L-2-amino-azidobutanoic acid, X2=L-2-aminohept-6-ynoic acid; three Cys bridged by TATA) |  |  |  | ring closure, yield after HPLC ([3]; triazole bond, 27-membered ring, CuSO4/Na ascorbate, H2O/tBuOH): 1% |
| Ac-Cys-MeAla-Trp(1-Me)-Ala(tBu)-Gln-Asp-Cys-Trp(1-Me)-ADMA-Gly-Phe(4-F)-Cys-NH2? |  |  | 19 |  |
| H-Cys-MeAla-Nal1-Ala(tBu)-Gln-Asp-Cys-Trp(1-Me)-ADMA-Gly-Phe(4-F)-Cys-dAla-NH2? |  |  |  | ring closure, yield after HPLC ([3]; crosslinker bond, 29-membered ring, TATA/NH4HCO3, MeCN/H2O, 0.93 mM): 17% |
| N3CH2C(O)NH(CH2CH2O)3CH2CH2(CO)-Cys-MeAla-Trp(1-Me)-Ala(tBu)-Gln-Asp-Cys-Trp(1-Me)-ADMA-Gly-Phe(4-F)-Cys-NH2 |  |  | 12 |  |
| n-octanoyl-Cys-MeAla-Trp(1-Me)-Ala(tBu)-Gln-Asp-Cys-Trp(1-Me)-ADMA-Gly-Phe(4-F)-Cys-NH2 |  |  | 14 |  |

Source: patent US11866518B2, “Bicyclic peptide ligands specific for TSLP” (BicycleTx Limited, priority 2020, dated 2024)
